We go through two molecules from US20230099229A1, “METHODS OF TREATING MULTIPLE SCLEROSIS” (REPRISE PHARMACEUTICALS, INC., priority 2020, published 2023).

In the test the test system is Experimental allergic encephalitis (EAE) in female C57BL/6 mice. Description: EAE model in C57BL/6 mice, daily neurological clinical score (Example 2). It is filed as in vivo, mouse. The conditions noted are these: C57BL/6 mice treated from clinical score 2 for 28 days; DMF 15 mg/kg BID, GCZ 5 mg/kg BID, alone or combined; compared to vehicle control and single agents. How it is done:
Experimental allergic encephalitis (EAE) is induced in female C57BL/6 mice (10 weeks old) by subcutaneous injection in the flank regions (left and right sides) with 200 μl total of an emulsion of MOG35-55 peptide (200 μg in 100 μl phosphate buffered saline plus 100 μl of complete Freund's adjuvant containing […] of heat-inactivated Mycobacterium tuberculosis). Each mouse then receives 200 ng of pertussis toxin intraperitoneally (IP) on the day of immunization (day 0) and then again 48 h later (day 2). Neurological assessments are reported using a five-point standardized rating scale to evaluate motor deficit: 0, no deficit; 1, tail paralysis; 2, unilateral hind limb weakness; 3, incomplete bilateral hind limb paralysis and/or partial forelimb weakness; 4, complete hind limb paralysis and partial forelimb weakness; 5, moribund state or death.
The DMF is prepared as a suspension (15 mg/ml) in 0.8% hydroxypropyl methylcellulose (HPMC) weekly and kept at 4° C. under constant stirring. DMF is diluted into 200 μl HPMC, corresponding to a dose of 15 mg/kg body weight, and is administered twice daily (30 mg/kg/day) by oral gavage through a bulb-tipped curved gastric gavage needle by trained operators.
Experimental allergic encephalitis (EAE) was induced in female C57BL/6 mice as described in Example 1. […]

Counter-ions that a name gives are not always drawn.

Consider `COC(=O)/C=C/C(=O)OC` [DMF, dimethyl fumarate], for which the “EAE clinical scores (five-point motor deficit scale 0-5), fitted regression curves” value is “no observed difference”. The result for `Cc1ccc(S(=O)(=O)NC(=O)NN2CC3CCCC3C2)cc1` (centres unmarked) [GCZ, gliclazide] reads “no observed difference”.
